# How the values were obtained:
# [1] = target: T1, GST-tagged Tankyrase-1 (1023-1327 aa) (Homo sapiens, UniProt O95271); assay: Tankyrase 1 autoparsylation assay (HTRF enzyme assay); assay type: biochemical
# T1 construct: GST-tagged Tankyrase-1 (1023-1327 aa)
# Protocol: (§1) Biochemical Activity Testing of Tankyrase 1 and 2: Autoparsylation Assay
# (§2) The autoparsylation assay is run in two steps: the enzymatic reaction in which GST-tagged Tankyrase-1, resp Tankyrase-2 transferred biotinylated ADP-ribose to itself from biotinylated NAD as co-substrate and the detection reaction where a time resolved FRET between cryptate labelled anti-GST bound to the GST tag of the enzyme and Xlent® labelled-streptavidin bound the biotin-parsylation residue is analysed. The autoparsylation activity was detectable directly via the increase in HTRF signal.
# (§3) The autoparsylation assay is performed as 384-well HTRF® (Cisbio, Codolet, France) assay format in Greiner low volume nb 384-well microtiter plates and is used for high throughput screen. 250 nM GST-tagged Tankyrase-1 (1023-1327 aa), respectively about 250 nM GST-tagged Tankyrase-2 (873-1166 aa) and 5 μM bio-NAD (Biolog, Life science Inst., Bremen, Germany) as co-substrate are incubated in a total volume of 5 μl (50 mM HEPES, 4 mM Mg-chloride, 0.05% Pluronic F-68, 1.4 mM DTT, 0.5% DMSO, pH 7.7) in the absence or presence of the test compound (10 dilution concentrations) for 90 min at 30° C. The reaction is stopped by the addition of 1 μl 50 mM EDTA solution. 2 μl of the detection solution (1.6 μM SA-Xlent® (Cisbio, Codolet, France), 7.4 nM Anti-GST-K® (Eu-labelled anti-GST, Cisbio, Codolet, France) in 50 mM HEPES, 800 mM KF, 0.1% BSA, 20 mM EDTA, 0.1% CHAPS, pH 7.0) are added. After 1 h incubation at room temperature the HTRF is measured with an Envision multimode reader (Perkin Elmer LAS Germany GmbH) at excitation wavelength 340 nm (laser mode) and emission wavelengths 615 nm and 665 nm. The ratio of the emission signals is determined. The full value used is the inhibitor-free reaction. The pharmacological zero value used is XAV-939 (Tocris) in a final concentration of 5 μM. The inhibitory values (IC50) are determined using either the program Symyx Assay Explorer® or Condosseo® from GeneData.
# [2] = target: T2, GST-tagged Tankyrase-2 (873-1166 aa) (Homo sapiens, UniProt Q9H2K2); assay: Tankyrase 2 autoparsylation assay (HTRF enzyme assay); assay type: biochemical
# T2 construct: GST-tagged Tankyrase-2 (873-1166 aa)
# Protocol: as §1, §2, §3
# His-tagged Parp-1 = target: T3, His-tagged Parp-1 (Homo sapiens, UniProt P09874); assay: PARP-1 autoparsylation assay (HTRF); assay type: biochemical; details: PARP-1 autoparsylation HTRF assay
# T3 construct: purchased Enzo Life Sciences GmbH
# Source text: Description of the PARP1 Assay
# Biochemical Activity Testing of PARP-1: Autoparsylation Assay
# The autoparsylation assay is run in two steps: the enzymatic reaction in which
# His-tagged Parp-1 transfers biotinylated ADP-ribose/ADP-ribose to itself from biotinylated NAD/NAD as co-substrate and the detection reaction where a time resolved FRET between cryptate labelled anti-His antibody bound to the His tag of the enzyme and Xlent® labelled-streptavidin bound the biotin-parsylation residue is analysed. The autoparsylation activity is detectable directly via the increase in HTRF signal.
# The autoparsylation assay is performed as 384-well HTRF® (Cisbio, Codolet, France) assay format in Greiner low volume nb 384-well microtiter plates. 35 nM His-tagged Parp-1 (human, recombinant, Enzo Life Sciences GmbH, Lörrach, Germany) and a mixture of 125 nM bio-NAD (Biolog, Life science Inst., Bremen, Germany) and 800 nM NAD as co-substrate are incubated in a total volume of 6 μl (100 mM Tris/HCl, 4 mM Mg-chloride, 0.01% IGEPAL® CA630, 1 mM DTT, 0.5% DMSO, pH 8, 13 ng/μl activated DNA (BPS Bioscience, San Diego, US)) in the absence or presence of the test compound (10 dilution concentrations) for 150 min at 23° C. The reaction is stopped by the addition of 4 μl of the Stop/detection solution (70 nM SA-Xlent® (Cisbio, Codolet, France), 2.5 nM Anti-His-K® (Eu-labelled anti-His, Cisbio, Codolet, France) in 50 mM HEPES, 400 mM KF, 0.1% BSA, 20 mM EDTA, pH 7.0). After 1 h incubation at room temperature the HTRF is measured with an Envision multimode reader (Perkin Elmer LAS Germany GmbH) at excitation wavelength 340 nm (laser mode) and emission wavelengths 615 nm and 665 nm. The ratio of the emission signals is determined. The full value used is the inhibitor-free reaction. The pharmacological zero value used is Olaparib (LClabs, Woburn, US) in a final concentration of 1 μM. The inhibitory values (IC50) are determined using either the program Symyx Assay Explorer® or Condosseo® from GeneData.
# tankyrase 1/2 = assay: Cellular inhibition of Tankyrase: increase of Axin2 level in DLD1 cells (Luminex); assay type: cell-based; details: 24 hours, read-out: EC50 tankyrase 1/2 (cell assay)
# Protocol: Measurement of Cellular Inhibition of Tankyrase
# Since Tankyrases have been described to modulate cellular level of Axin2 (Huang et al., 2009; Nature) the increase of Axin2 level is used as read-out for determination of cellular inhibition of Tankyrases in a Luminex based assay.
# Cells of the colon carcinoma cell line DLD1 are plated in 96 well plates with 1.5×10^4 cells per well. Next day, cells are treated with a serial dilution of test compound in seven steps as triplicates with a final DMSO concentration of 0.3%. After 24 hours, cells are lysed in lysis buffer (20 mM Tris/HCl pH 8.0, 150 mM NaCl, 1% NP40, 10% Glycerol) and lysates are cleared by centrifugation through a 96 well filter plate (0.65 μm). Axin2 protein is isolated from cell lysates by incubation with a monoclonal anti-Axin2 antibody (R&D Systems #MAB6078) that is bound to fluorescent carboxybeads. Then, bound Axin2 is specifically detected with a polyclonal anti-Axin2 antibody (Cell Signaling #2151) and an appropriate PE-fluorescent secondary antibody. The amount of isolated Axin2 protein is determined in a Luminex^200 machine (Luminex Corporation) according to the manufacturer's instruction by counting 100 events per well. Inhibition of Tankyrase by test compounds results in higher levels of Axin2 which directly correlates with an increase of detectable fluorescence. As controls cells are treated with solvent alone (neutral control) and with a Tankyrase reference inhibitor IWR-2 (3E-06 M) which refers as control for maximum increase of Axin2. For analysis, the obtained data are normalized against the untreated solvent control and fitted for determination of the EC50 values using the Assay Explorer software (Accelrys).
# T3 sequence (P09874 whole entry): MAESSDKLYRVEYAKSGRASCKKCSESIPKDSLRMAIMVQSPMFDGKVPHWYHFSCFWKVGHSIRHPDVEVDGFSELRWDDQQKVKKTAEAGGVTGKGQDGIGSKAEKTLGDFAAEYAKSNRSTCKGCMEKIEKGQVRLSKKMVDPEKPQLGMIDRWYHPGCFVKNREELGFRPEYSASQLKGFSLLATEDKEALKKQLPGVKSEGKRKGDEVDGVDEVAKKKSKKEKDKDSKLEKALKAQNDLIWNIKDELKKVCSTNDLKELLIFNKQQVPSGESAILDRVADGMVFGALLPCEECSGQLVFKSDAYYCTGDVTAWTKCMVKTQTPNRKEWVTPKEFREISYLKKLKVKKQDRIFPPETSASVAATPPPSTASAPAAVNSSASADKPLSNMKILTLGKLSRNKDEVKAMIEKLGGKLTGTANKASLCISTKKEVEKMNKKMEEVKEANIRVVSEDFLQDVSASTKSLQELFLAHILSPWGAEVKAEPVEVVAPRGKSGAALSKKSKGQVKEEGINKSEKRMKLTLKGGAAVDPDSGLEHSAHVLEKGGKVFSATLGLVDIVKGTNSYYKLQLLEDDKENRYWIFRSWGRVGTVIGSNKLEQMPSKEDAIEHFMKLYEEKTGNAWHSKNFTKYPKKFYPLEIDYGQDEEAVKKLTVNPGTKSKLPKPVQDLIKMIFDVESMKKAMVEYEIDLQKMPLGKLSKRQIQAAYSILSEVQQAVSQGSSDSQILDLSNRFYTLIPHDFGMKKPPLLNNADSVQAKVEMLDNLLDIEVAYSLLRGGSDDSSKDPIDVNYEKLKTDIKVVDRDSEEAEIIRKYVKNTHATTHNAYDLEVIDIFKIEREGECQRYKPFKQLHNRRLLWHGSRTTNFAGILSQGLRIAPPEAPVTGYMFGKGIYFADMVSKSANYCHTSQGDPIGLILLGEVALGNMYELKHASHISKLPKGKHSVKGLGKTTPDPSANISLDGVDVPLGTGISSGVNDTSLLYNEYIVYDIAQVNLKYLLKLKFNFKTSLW
# T1 sequence (O95271 1023-1327): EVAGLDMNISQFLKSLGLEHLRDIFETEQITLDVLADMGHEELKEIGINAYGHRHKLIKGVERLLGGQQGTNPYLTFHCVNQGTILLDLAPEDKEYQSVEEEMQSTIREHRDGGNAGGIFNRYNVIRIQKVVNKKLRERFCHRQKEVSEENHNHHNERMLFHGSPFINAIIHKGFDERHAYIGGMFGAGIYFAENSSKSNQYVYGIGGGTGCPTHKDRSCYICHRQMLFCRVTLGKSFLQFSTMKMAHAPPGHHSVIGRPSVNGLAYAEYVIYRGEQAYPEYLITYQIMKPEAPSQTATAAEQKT
# T2 sequence (Q9H2K2 873-1166): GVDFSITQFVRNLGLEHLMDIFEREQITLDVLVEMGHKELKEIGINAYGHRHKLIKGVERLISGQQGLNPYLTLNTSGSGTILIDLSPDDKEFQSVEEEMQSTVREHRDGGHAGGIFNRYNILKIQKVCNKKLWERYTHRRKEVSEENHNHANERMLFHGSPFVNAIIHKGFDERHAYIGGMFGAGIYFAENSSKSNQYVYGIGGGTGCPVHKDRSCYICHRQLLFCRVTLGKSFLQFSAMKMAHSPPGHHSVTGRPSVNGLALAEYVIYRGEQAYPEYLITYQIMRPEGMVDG
IC50 (His-tagged Parp-1) [nM],SMILES,IC50 [1] [nM],IC50 [2] [nM],EC50 (tankyrase 1/2) [nM]
300 to 3000,"O=c1[nH]c(-c2ccc(F)cc2)cn2cccc12 [Compound A10, 3-(4-fluoro-phenyl)-2H-pyrrolo[1,2-a]pyrazin-1-one]",300 to 3000,300 to 3000,
300 to 3000,"O=c1[nH]c(-c2ccc(OCc3ccccc3)cc2)cn2cccc12 [Compound A1, 3-(4-benzyloxy-phenyl)-2H-pyrrolo[1,2-a]pyrazin-1-one]",< 300,300 to 3000,
300 to 3000,"COc1cccc(-c2cn3cccc3c(=O)[nH]2)c1 [Compound A4, 3-(3-methoxy-phenyl)-2H-pyrrolo[1,2-a]pyrazin-1-one]",300 to 3000,300 to 3000,
300 to 3000,"O=c1[nH]c(-c2cccc(Cl)c2)cn2cccc12 [Compound A3, 3-(3-chloro-phenyl)-2H-pyrrolo[1,2-a]pyrazin-1-one]",300 to 3000,300 to 3000,
3000 to 50000,"O=c1[nH]c(-c2ccc3c(c2)OCO3)cn2cccc12 [Compound A9, 3-benzo[1,3]dioxol-5-yl-2H-pyrrolo[1,2-a]pyrazin-1-one]",300 to 3000,300 to 3000,
3000 to 50000,"COc1ccc(-c2cn3cccc3c(=O)[nH]2)cc1OC [Compound A8, 3-(3,4-dimethoxy-phenyl)-2H-pyrrolo[1,2-a]pyrazin-1-one]",300 to 3000,3000 to 50000,
,"O=c1[nH]c(-c2ccc(N3CCCC3)cc2)cn2nccc12 [Compound A17, 6-(4-pyrrolidin-1-yl-phenyl)-5H-pyrazolo[1,5-a]pyrazin-4-one]",< 300,< 300,300 to 3000
,Cc1cc2c(=O)[nH]c(-c3ccc(-c4cnn(C)c4)cc3)cn2c1 [Compound A91],< 300,300 to 3000,300 to 3000
,"CC(C)(C)c1ccc(-c2cn3nc(CF)cc3c(=O)[nH]2)cc1 [Compound A64, 6-(4-tert-butyl-phenyl)-2-fluoromethyl-5H-pyrazolo[1,5-a]pyrazin-4-one]",< 300,300 to 3000,300 to 3000
,"C=C(CCCO)c1ccc(-c2cn3cc(F)cc3c(=O)[nH]2)cc1 (single isomer, unassigned) [Compound A74, 7-fluoro-3-[4-(4-hydroxy-1-methylene-butyl)-phenyl]-2H-pyrrolo[1,2-a]pyrazin-1-one]",< 300,300 to 3000,300 to 3000
300 to 3000,"O=c1[nH]c(-c2ccc([N+](=O)[O-])cc2)cn2cccc12 [Compound A6, 3-(4-nitro-phenyl)-2H-pyrrolo[1,2-a]pyrazin-1-one]",< 300,< 300,
,"CC(C)(C)c1ccc(-c2cn3nc(C(F)F)cc3c(=O)[nH]2)cc1 [Compound A66, 6-(4-tert-butyl-phenyl)-2-difluoromethyl-5H-pyrazolo[1,5-a]pyrazin-4-one]",< 300,300 to 3000,300 to 3000
,"O=c1[nH]c(-c2ccc(-c3cnn(CCN4CCCC4)c3)cc2)cn2cccc12 [Compound A27, 3-{4-[1-(2-pyrrolidin-1-yl-ethyl)-1H-pyrazol-4-yl]-phenyl}-2H-pyrrolo[1,2-a]pyrazin-1-one]",< 300,< 300,300 to 3000

SMILES,IC50 (His-tagged Parp-1) [nM],IC50 [1] [nM],IC50 [2] [nM],EC50 (tankyrase 1/2) [nM]
"COc1ccc(-c2cn3cccc3c(=O)[nH]2)cc1 [Compound A7, 3-(4-methoxy-phenyl)-2H-pyrrolo[1,2-a]pyrazin-1-one]",300 to 3000,< 300,300 to 3000,3000 to 50000
"O=c1[nH]c(-c2ccc(C(F)(F)F)cc2)cn2cccc12 [Compound A13, 3-(4-trifluoromethyl-phenyl)-2H-pyrrolo[1,2-a]pyrazin-1-one]",300 to 3000,300 to 3000,< 300,300 to 3000
